For assay [1], the species on record is Rattus norvegicus. Put plainly: Inhibition of Monoamine oxidase in rat brain mitochondria at 0.08 mM by kynuramine fluorimetric assay.
For assay [2], the species on record is Rattus norvegicus. Put plainly: Inhibition of Monoamine oxidase in rat brain mitochondria at 0.008 mM by kynuramine fluorimetric assay.
Assay [3] is filed under the species Rattus norvegicus. Put plainly: Inhibition of Monoamine oxidase in rat brain mitochondria at 0.8 mM by kynuramine fluorimetric assay.
For assay [4], the species on record is Rattus norvegicus. Briefly: Inhibition of Monoamine oxidase in rat brain mitochondria at 0.01 mM by kynuramine fluorimetric assay.
Assay [5] is filed under the species Rattus norvegicus. Briefly: Inhibition of Monoamine oxidase in rat brain mitochondria at 0.1 mM by kynuramine fluorimetric assay.
For assay [6], the species on record is Rattus norvegicus. Briefly: Inhibition of Monoamine oxidase in rat brain mitochondria at 1 mM by kynuramine fluorimetric assay.

For orientation: inhibition means the percentage by which the read-out fell short of the control. Low readings indicate a weak effect, high ones a strong effect. Consider `CCCCC1(CCCC)OC(c2ccc3c(c2)OCO3)=NN1C(C)=O`, for which the figures for the inhibition in the assay filed under Rattus norvegicus [1], in the assay filed under Rattus norvegicus [2] and in the assay filed under Rattus norvegicus [3] were 0%, 1.21% and 0%, respectively.
Turning to `CCCCC1(CCCC)OC(c2ccc(Cl)cc2)=NN1C(=O)NC(=O)c1c(F)cccc1F`, the inhibition in the assay listed under Rattus norvegicus [4] stood at 0%; in the assay listed under Rattus norvegicus [5], 6.03%; in the assay listed under Rattus norvegicus [6], 58.8%.
For the compound `CCCCC1(CCCC)OC(c2ccc(Cl)cc2Cl)=NN1C(=O)NC(=O)c1c(F)cccc1F`, the inhibition in the assay filed under Rattus norvegicus [4] stood at 5.43%; in the assay listed under Rattus norvegicus [5], 25.1%; in the assay filed under Rattus norvegicus [6], 72.5%.
`CCCCC1(CCCC)OC(c2cc(C)cc(C)c2)=NN1C(=O)NC(=O)c1ccccc1Cl`: the inhibition in the assay listed under Rattus norvegicus [4] was determined as 4.12%; in the assay filed under Rattus norvegicus [5] it was 24.6%; in the assay listed under Rattus norvegicus [6], 72.8%.
For `CCCCC1(CCCC)OC(c2ccco2)=NN1C(=O)NC(=O)c1c(F)cccc1F`, in that order: 1.84%, 23.7% and 75.1%.
Regarding `CCCCC1(CCCC)OC(c2ccc3c(c2)OCO3)=NN1C(=O)NC(=O)c1ccccc1Cl`, the inhibition is 6.73% in the assay listed under Rattus norvegicus [4], 27.5% in the assay listed under Rattus norvegicus [5] and 75.4% in the assay listed under Rattus norvegicus [6].
With `CCCCC1(CCCC)OC(c2cc(OC)c(OC)c(OC)c2)=NN1C(=O)NC(=O)c1c(F)cccc1F`, the inhibition turned out to be 0% in the assay filed under Rattus norvegicus [4], 21.7% in the assay listed under Rattus norvegicus [5] and 69.2% in the assay listed under Rattus norvegicus [6].
For the compound `CCCCC1(CCCC)OC(c2ccc3c(c2)OCO3)=NN1C(=O)NC(=O)c1c(F)cccc1F`, the inhibition amounted to 8.37% in the assay listed under Rattus norvegicus [4], 41% in the assay listed under Rattus norvegicus [5] and 78.4% in the assay filed under Rattus norvegicus [6].
Consider `CCCCC1(CCCC)OC(c2cc(OC)c(OC)c(OC)c2)=NN1C(C)=O`, for which the inhibition in the assay listed under Rattus norvegicus [1], in the assay listed under Rattus norvegicus [2] and in the assay listed under Rattus norvegicus [3] was 0% each time.
`CCCCC1(CCCC)OC(c2ccc(Cl)cc2Cl)=NN1C(=O)NC(=O)c1cc(F)c(OC)c(F)c1F`: the inhibition came out at 2.92% in the assay listed under Rattus norvegicus [4], 25.9% in the assay listed under Rattus norvegicus [5] and 81.8% in the assay filed under Rattus norvegicus [6].
In the case of `CCCCC1(CCCC)OC(c2cc(C)cc(C)c2)=NN1C(C)=O`, the inhibition worked out at 17.7% in the assay filed under Rattus norvegicus [1], 2.89% in the assay filed under Rattus norvegicus [2] and 42.8% in the assay listed under Rattus norvegicus [3].
Turning to `CCCCC1(CCCC)OC(c2cc(C)cc(C)c2)=NN1C(=O)NC(=O)c1c(F)cccc1F`, the inhibition in the assay filed under Rattus norvegicus [4] was 5.85%; in the assay listed under Rattus norvegicus [5], 26.2%; in the assay filed under Rattus norvegicus [6], 69.2%.
Consider `CCCCC1(CCCC)OC(c2ccc(Cl)cc2Cl)=NN1C(=O)NC(=O)c1ccccc1Cl`, for which the inhibition in the assay listed under Rattus norvegicus [4] came out at 5.86%; in the assay listed under Rattus norvegicus [5], 24.9%; in the assay listed under Rattus norvegicus [6], 78%.
